Measurements reported in ChEMBL document CHEMBL5230102, “Bicyclic polyprenylated acylphloroglucinols and their derivatives: structural modification, structure-activity relationship, biological activity and mechanism of action” (Eur J Med Chem, 2020).
Converted amounts (≈) assume the structure as drawn.

Test system: Staphylococcus aureus
Experiment: Antibacterial activity against methicillin resistant Staphylococcus aureus USA300
Type: functional

SMILES | MIC
CC1(C)[C@H](Cc2ccccc2)C[C@@]2(Cc3ccccc3)C(=O)[C@]1(C)C(=O)C(C(=O)c1ccccc1)=C2O | > 30 µg/mL
CC(C)=CC[C@@H]1C[C@@]2(CC=C(C)C)C(=O)[C@](CC=C(C)C)(C(=O)C(C(=O)C(C)C)=C2O)C1(C)C | 2 µg/mL (≈ 4.27 µM)
CC(C)=CC[C@@H]1C[C@]2(CC=C(C)C)C(=O)C(C(=O)c3ccccc3)=C3O[C@H](C(C)(C)O)C[C@]3(C2=O)C1(C)C | 4 µg/mL (≈ 7.71 µM)
CC(C)=CC[C@@H]1C[C@@]2(CC=C(C)C)C(=O)[C@](C)(C(=O)C(C(=O)c3ccccc3)=C2O)C1(C)C | > 30 µg/mL
CC(C)=CC[C@@H]1C[C@@]2(Cc3ccccc3)C(=O)[C@](C)(C(=O)C(C(=O)c3ccccc3)=C2O)C1(C)C | > 30 µg/mL
C=C(C)[C@H](CC=C(C)C)C[C@]12C[C@H](CC=C(C)C)C(C)(C)[C@](CC=C(C)C)(C(=O)C(C(=O)c3ccc(O)c(O)c3)=C1O)C2=O | 7 µg/mL (≈ 11.6 µM)
CC(C)=CC[C@@H]1C[C@@]2(Cc3ccccc3)C(=O)[C@](CC=C(C)C)(C(=O)C(C(=O)c3ccccc3)=C2O)C1(C)C | 1 µg/mL (≈ 1.91 µM)
C=CC[C@@]12C(=O)C(C(=O)C(C)C)=C(O)[C@@](Cc3ccccc3)(C[C@@H](CC=C(C)C)C1(C)C)C2=O | 1 µg/mL (≈ 2.16 µM)
CC(C)=CCC(=O)C1=C(O)[C@@]2(C)C[C@@H](CC=C(C)C)C(C)(C)[C@@](CC=C(C)C)(C1=O)C2=O | 4 µg/mL (≈ 9.08 µM)
CC(C)=CC[C@@]12C[C@@H](Cc3ccccc3)C(C)(C)[C@@](C)(C(=O)C(C(=O)c3ccccc3)=C1O)C2=O | > 30 µg/mL
CC(C)=CC[C@@]12C(=O)C(C(=O)c3ccccc3)=C(O)[C@@](Cc3ccccc3)(C[C@@H](Cc3ccccc3)C1(C)C)C2=O | 4 µg/mL (≈ 7.32 µM)
CC(C)=CC[C@@]12C[C@@H](Cc3ccccc3)C(C)(C)[C@@](CC=C(C)C)(C(=O)C(C(=O)c3ccccc3)=C1O)C2=O | 4 µg/mL (≈ 7.62 µM)
CC(C)=CCC(=O)C1=C(O)[C@@]2(Cc3ccccc3)C[C@@H](CC=C(C)C)C(C)(C)[C@@](CC=C(C)C)(C1=O)C2=O | 2 µg/mL (≈ 3.87 µM)
C=CC[C@@]12C[C@@H](CC=C(C)C)C(C)(C)[C@@](CC=C)(C(=O)C(C(=O)C(C)C)=C1O)C2=O | 2 µg/mL (≈ 4.85 µM)
CC(C)=CC[C@@H]1C[C@]23C[C@@H](CC=C(C)C)C(C)(C)[C@](CC=C(C)C)(C(=O)C(C(=O)c4ccc(O)c(O)c4)=C2OC1(C)C)C3=O | > 30 µg/mL
CC(C)=CC[C@@H]1C[C@@]2(CC=C(C)C)C(=O)[C@](CC=C(C)C)(C(=O)C(C(=O)c3ccccc3)=C2O)C1(C)C [CLUSIANONE] | 1 µg/mL (≈ 1.99 µM)
C=CC[C@@]12C(=O)C(C(C)=O)=C(O)[C@@](Cc3ccccc3)(C[C@@H](CC=C(C)C)C1(C)C)C2=O | 1 µg/mL (≈ 2.3 µM)
C=CC[C@@]12C[C@@H](CC=C(C)C)C(C)(C)[C@@](CC=C)(C(=O)C(C(C)=O)=C1O)C2=O | 2 µg/mL (≈ 5.2 µM)
CC(=O)C1=C(O)[C@@]2(CC=C(C)C)C[C@@H](CC=C(C)C)C(C)(C)[C@@](CC=C(C)C)(C1=O)C2=O | 1 µg/mL (≈ 2.27 µM)
CC(=O)C1=C(O)[C@@]2(Cc3ccccc3)C[C@@H](CC=C(C)C)C(C)(C)[C@@](CC=C(C)C)(C1=O)C2=O | 0.5 µg/mL (≈ 1.08 µM)
C=CC[C@@]12C(=O)C(C(=O)c3ccccc3)=C(O)[C@@](Cc3ccccc3)(C[C@@H](CC=C(C)C)C1(C)C)C2=O | 4 µg/mL (≈ 8.05 µM)

Test system: HeLa
Experiment: Cytotoxicity against human HeLa cells assessed as inhibition of cell growth
Type: functional, cell-based

SMILES | IC50
CC(C)=CCC/C(C)=C/C[C@]12C[C@@H](CC=C(C)C)C(C)(C)[C@](CC=C(C)C)(C(=O)C(C(=O)c3ccc(O)c(O)c3)=C1O)C2=O | 11.7 µg/mL (≈ 19.4 µM)
CC(C)=CCC/C(C)=C/C[C@@H]1C[C@@]2(CC=C(C)C)C(=O)CC(=O)[C@](CC=C(C)C)(C2=O)C1(C)C | 9.69 µg/mL (≈ 20.8 µM)
CC(C)=CC[C@H]1C[C@@]2(CC=C(C)C)C(=O)c3c(oc4c(O)c(O)ccc4c3=O)[C@](CC=C(C)C)(C2=O)C1(C)C | 4.69 µg/mL (≈ 8.8 µM)
CC(C)=CCC/C(C)=C/C[C@]12C[C@@H](CC=C(C)C)C(C)(C)[C@](C/C=C(\C)CCC=C(C)C)(C(=O)CC1=O)C2=O | > 20 µg/mL
CC(C)=CCC/C(C)=C/C[C@@H]1C[C@]2(CC=C(C)C)C(=O)[C@@](CC=C(C)C)(C(=O)C(C(=O)c3ccc(O)c(O)c3)=C2O)C1(C)C [OBLONGIFOLIN B] | > 20 µg/mL
CC(C)=CC[C@@H]1C[C@]2(CC=C(C)C)C(=O)[C@@](CC=C(C)C)(C(=O)C(C(=O)c3ccccc3)=C2O)C1(C)C | 12 µg/mL (≈ 23.8 µM)
CC(C)=CCC/C(C)=C/C[C@]12C[C@@H](CC=C(C)C)C(C)(C)[C@](C/C=C(\C)CCC=C(C)C)(C(=O)C(C(=O)c3ccc(O)c(O)c3)=C1O)C2=O [GUTTIFERONE O] | > 20 µg/mL
CC(C)=CCC/C(C)=C/C[C@]12C(=O)CC(=O)[C@](CC=C(C)C)(C[C@@H](CC=C(C)C)C1(C)C)C2=O | 11.7 µg/mL (≈ 25 µM)
CC(C)=CCC/C(C)=C/C[C@]12C[C@@H](CC=C(C)C)C(C)(C)[C@](CC=C(C)C)(C(=O)CC1=O)C2=O | 6.64 µg/mL (≈ 14.2 µM)
CC(C)=CC[C@H]1C[C@@]2(CC=C(C)C)C(=O)c3c(oc4cc(O)c(O)cc4c3=O)[C@](CC=C(C)C)(C2=O)C1(C)C | 7.65 µg/mL (≈ 14.4 µM)
CC(C)=CCC/C(C)=C/C[C@@H]1C[C@]2(C/C=C(\C)CCC=C(C)C)C(=O)[C@@](CC=C(C)C)(C(=O)C(C(=O)c3ccc(O)c(O)c3)=C2O)C1(C)C | 8.09 µg/mL (≈ 12.1 µM)
CC(C)=CCC/C(C)=C/C[C@@H]1C[C@@]2(C/C=C(\C)CCC=C(C)C)C(=O)CC(=O)[C@](CC=C(C)C)(C2=O)C1(C)C | > 20 µg/mL

Test system: SGC-7901
Experiment: Cytotoxicity against human SGC-7901 cells assessed as inhibition of cell growth
Type: functional, cell-based

SMILES | IC50
CC(C)=CCC/C(C)=C/C[C@]12C[C@@H](CC=C(C)C)C(C)(C)[C@](CC=C(C)C)(C(=O)C(C(=O)c3ccc(O)c(O)c3)=C1O)C2=O | 5.48 µg/mL (≈ 9.09 µM)
CC(C)=CCC/C(C)=C/C[C@@H]1C[C@@]2(CC=C(C)C)C(=O)CC(=O)[C@](CC=C(C)C)(C2=O)C1(C)C | 6.89 µg/mL (≈ 14.8 µM)
CC(C)=CC[C@H]1C[C@@]2(CC=C(C)C)C(=O)c3c(oc4c(O)c(O)ccc4c3=O)[C@](CC=C(C)C)(C2=O)C1(C)C | 4.69 µg/mL (≈ 8.8 µM)
CC(C)=CCC/C(C)=C/C[C@]12C[C@@H](CC=C(C)C)C(C)(C)[C@](C/C=C(\C)CCC=C(C)C)(C(=O)CC1=O)C2=O | > 20 µg/mL
CC(C)=CCC/C(C)=C/C[C@@H]1C[C@]2(CC=C(C)C)C(=O)[C@@](CC=C(C)C)(C(=O)C(C(=O)c3ccc(O)c(O)c3)=C2O)C1(C)C [OBLONGIFOLIN B] | > 20 µg/mL
CC(C)=CC[C@@H]1C[C@]2(CC=C(C)C)C(=O)[C@@](CC=C(C)C)(C(=O)C(C(=O)c3ccccc3)=C2O)C1(C)C | 12 µg/mL (≈ 23.8 µM)
CC(C)=CCC/C(C)=C/C[C@]12C[C@@H](CC=C(C)C)C(C)(C)[C@](C/C=C(\C)CCC=C(C)C)(C(=O)C(C(=O)c3ccc(O)c(O)c3)=C1O)C2=O [GUTTIFERONE O] | > 20 µg/mL
CC(C)=CCC/C(C)=C/C[C@]12C(=O)CC(=O)[C@](CC=C(C)C)(C[C@@H](CC=C(C)C)C1(C)C)C2=O | 8.5 µg/mL (≈ 18.2 µM)
CC(C)=CCC/C(C)=C/C[C@]12C[C@@H](CC=C(C)C)C(C)(C)[C@](CC=C(C)C)(C(=O)CC1=O)C2=O | 5.6 µg/mL (≈ 12 µM)
CC(C)=CC[C@H]1C[C@@]2(CC=C(C)C)C(=O)c3c(oc4cc(O)c(O)cc4c3=O)[C@](CC=C(C)C)(C2=O)C1(C)C | 7.65 µg/mL (≈ 14.4 µM)
CC(C)=CCC/C(C)=C/C[C@@H]1C[C@]2(C/C=C(\C)CCC=C(C)C)C(=O)[C@@](CC=C(C)C)(C(=O)C(C(=O)c3ccc(O)c(O)c3)=C2O)C1(C)C | 4.05 µg/mL (≈ 6.04 µM)
CC(C)=CCC/C(C)=C/C[C@@H]1C[C@@]2(C/C=C(\C)CCC=C(C)C)C(=O)CC(=O)[C@](CC=C(C)C)(C2=O)C1(C)C | > 20 µg/mL

Test system: HCT-116
Experiment: Cytotoxicity against human HCT-116 cells assessed as inhibition of cell growth
Type: functional, cell-based

SMILES | IC50
CC(C)=CCC/C(C)=C/C[C@]12C[C@@H](CC=C(C)C)C(C)(C)[C@](CC=C(C)C)(C(=O)C(C(=O)c3ccc(O)c(O)c3)=C1O)C2=O | 8.6 µg/mL (≈ 14.3 µM)
CC(C)=CCC/C(C)=C/C[C@@H]1C[C@@]2(CC=C(C)C)C(=O)CC(=O)[C@](CC=C(C)C)(C2=O)C1(C)C | 9.14 µg/mL (≈ 19.6 µM)
CC(C)=CC[C@H]1C[C@@]2(CC=C(C)C)C(=O)c3c(oc4c(O)c(O)ccc4c3=O)[C@](CC=C(C)C)(C2=O)C1(C)C | 2.44 µg/mL (≈ 4.58 µM)
CC(C)=CCC/C(C)=C/C[C@]12C[C@@H](CC=C(C)C)C(C)(C)[C@](C/C=C(\C)CCC=C(C)C)(C(=O)CC1=O)C2=O | > 20 µg/mL
CC(C)=CCC/C(C)=C/C[C@@H]1C[C@]2(CC=C(C)C)C(=O)[C@@](CC=C(C)C)(C(=O)C(C(=O)c3ccc(O)c(O)c3)=C2O)C1(C)C [OBLONGIFOLIN B] | > 20 µg/mL
CC(C)=CC[C@@H]1C[C@]2(CC=C(C)C)C(=O)[C@@](CC=C(C)C)(C(=O)C(C(=O)c3ccccc3)=C2O)C1(C)C | 6.87 µg/mL (≈ 13.7 µM)
CC(C)=CCC/C(C)=C/C[C@]12C[C@@H](CC=C(C)C)C(C)(C)[C@](C/C=C(\C)CCC=C(C)C)(C(=O)C(C(=O)c3ccc(O)c(O)c3)=C1O)C2=O [GUTTIFERONE O] | > 20 µg/mL
CC(C)=CCC/C(C)=C/C[C@]12C(=O)CC(=O)[C@](CC=C(C)C)(C[C@@H](CC=C(C)C)C1(C)C)C2=O | 10.9 µg/mL (≈ 23.4 µM)
CC(C)=CCC/C(C)=C/C[C@]12C[C@@H](CC=C(C)C)C(C)(C)[C@](CC=C(C)C)(C(=O)CC1=O)C2=O | 6.46 µg/mL (≈ 13.8 µM)
CC(C)=CC[C@H]1C[C@@]2(CC=C(C)C)C(=O)c3c(oc4cc(O)c(O)cc4c3=O)[C@](CC=C(C)C)(C2=O)C1(C)C | 5.96 µg/mL (≈ 11.2 µM)
CC(C)=CCC/C(C)=C/C[C@@H]1C[C@]2(C/C=C(\C)CCC=C(C)C)C(=O)[C@@](CC=C(C)C)(C(=O)C(C(=O)c3ccc(O)c(O)c3)=C2O)C1(C)C | 4.92 µg/mL (≈ 7.33 µM)
CC(C)=CCC/C(C)=C/C[C@@H]1C[C@@]2(C/C=C(\C)CCC=C(C)C)C(=O)CC(=O)[C@](CC=C(C)C)(C2=O)C1(C)C | > 20 µg/mL

Test system: Staphylococcus aureus
Experiment: Antibacterial activity against Staphylococcus aureus
Type: functional, organism-based

SMILES | IC50
CC(C)=CCC1=C(O)[C@@]2(C(=O)c3ccccc3)C(=O)[C@](CC=C(C)C)(C[C@H](CC=C(C)C)C2(C)C)C1=O | < 1000 nM

Test system: Plasmodium falciparum
Experiment: Antimalarial activity against Plasmodium falciparum
Type: functional, organism-based

SMILES | IC50
CC(C)=CCC1=C(O)[C@@]2(C(=O)c3ccccc3)C(=O)[C@](CC=C(C)C)(C[C@H](CC=C(C)C)C2(C)C)C1=O | < 1000 nM
